Laboratory results as given in patent US20100158858A1, “ADMINISTRATION OF CARBOLINE DERIVATIVES USEFUL IN THE TREATMENT OF CANCER AND OTHER DISEASES” (priority 2007, published 2010).
Read-outs that look alike come from different tables or passages of the source. Marks after values point to notes of the source that are not given here.

Test system: MCF-7 breast cancer cells transfected with the human aromatase gene
Details: for Mean % Inhibition of Tumor Size vs Vehicle at Day 42 / Mean Tumor Size at Day 98 / Mice cured / Mice dead / Mice with Escape to 500 mm^3 / Percent of mice with cures: letrazole only
Description: The relative effects of the aromatase inhibitor agent letrozole and a test compound of the present invention were evaluated, when administered alone or in combination, on the in vivo growth of MCF-7 breast cancer cells transfected with the human aromatase gene.
In this study, cells (7.0×10^6 cells/mouse) were implanted subcutaneously in female ovariectomized athymic nude mice (n=10). Androstenedione was administered (via slow-release pellets) as a source of […].
The daily dose was administered in a target volume of 0.1 mL, which was adjusted according to subject weight. The oral vehicle was L21 (a mixture of 35% Labrasol, 35% Labrafac, and 30% Solutol). Individual vehicle-treated mice were removed from study when the tumor reached 1500 mm^3. After 100 days of treatment, treatment was stopped.

[1] = 10 μg/mouse orally once per day
[2] = 30 μg/mouse orally once per day

`N#Cc1ccc(C(c2ccc(C#N)cc2)n2cncn2)cc1` [letrozole] was tested, and the “Mean % Inhibition of Tumor Size vs Vehicle at Day 42” value [1] was 72%, the “Mean Tumor Size at Day 98” value [1] was 225 mm^3 and the Mice cured [1] was 0 of 9. For the same molecule, the Mice dead [1] was 1, the “Mice with Escape to 500 mm^3” value [1] was 2 and the “Percent of mice with cures” value [1] was 0% cured. The “Mean % Inhibition of Tumor Size vs Vehicle at Day 42” value [2] was 91%**, the “Mean Tumor Size at Day 98” value [2] was 146 mm^3 and the Mice cured [2] was 2 of 9. The Mice dead [2] was 1, the “Mice with Escape to 500 mm^3” value [2] was 0 and the “Percent of mice with cures” value [2] was 22% cured. For the same molecule, the “Effect on tumor growth” value (letrozole (10 μg/mouse) alone) was “the tumors did not regress, tumor growth was prevented”, the “Effect on tumor growth” value (letrozole (30 μg/mouse) alone) was “the tumors regressed” and the “Mice with cures (no measurable tumor) at Day 100” value (letrozole (30 μg/mouse) alone) was “two of the nine”.
